Source: US9271962B2 (NORTHEASTERN UNIVERSITY, priority 2008, dated 2016)
Read-outs that look alike come from different tables or passages of the source.

Tests used:
[1] = molecular target: T1, hMGL (Homo sapiens, UniProt Q99685); experiment: Fluorescent enzyme assay, MGL (AHMMCE hydrolysis); format: biochemical; details: for inhibition at 0.01 µM: read-out: % Inhibition of Enzyme by inhibitor, MGL, 10 nM; for inhibition at 1 µM: 1000 nM inhibitor
T1 construct: A full-length cDNA clone of the human MGL transcript variant 1; made in house; host or cells: E. coli BL21 (DE3)
T1 sequence (Q99685 2-303 limits assumed): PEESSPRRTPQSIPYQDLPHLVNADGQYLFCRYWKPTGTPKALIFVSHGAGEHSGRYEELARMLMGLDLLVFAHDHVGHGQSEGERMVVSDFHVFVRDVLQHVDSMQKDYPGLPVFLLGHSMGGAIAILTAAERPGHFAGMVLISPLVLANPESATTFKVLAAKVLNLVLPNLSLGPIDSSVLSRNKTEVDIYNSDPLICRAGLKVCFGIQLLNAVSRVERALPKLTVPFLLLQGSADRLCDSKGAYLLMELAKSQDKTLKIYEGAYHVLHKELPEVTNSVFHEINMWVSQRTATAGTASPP
Experimental: (§1) Some analogs were tested for their FAAH/MGL inhibitory activity, which is expressed as % of inhibition (Tables 2, 3, and 4 below). The percentage of inhibition results from three-point assay (three concentrations of inhibitor are used) and it is less accurate (preliminary screening) than the IC50/Ki values that are determined from eight-point assay (eight different concentrations of inhibitor were used). The percentage of inhibition describes the percentage by which the inhibitor reduces the velocity/rate of AAMCA (arachidonoyl-7-amino-4-methylcoumarin amide) or AHMMCE (arachidonoyl-7-hydroxy-6-methoxy-4-methylcoumarin ester) hydrolysis by FAAH or MGL respectively. The IC50 is the concentration of the inhibitor, which results in 50% inhibition of the velocity/rate of AAMCA (arachidonoyl 7-amino-4-methylcoumarin amide) hydrolysis by FAAH or AHMMCE (Arachidonoyl, 7-hydroxy-6-methoxy-4-methylcoumarin ester) hydrolysis by MGL. The Ki value is the affinity constant and describes the ability of the compounds to inhibit the function of FAAH or MGL. The lower the IC50/Ki values, the higher the affinity of the inhibitor for the enzyme and the higher its inhibitory activity. A detailed description of the methods used to test inhibitory activity of compounds is given below.
A full-length cDNA clone of the human MGL transcript variant 1 (gi: 51242951) was obtained from OriGene Technologies (Rockville, Md.). The coding part of the MGL sequence (except the translation initiation codon ATG) was amplified by a polymerase chain reaction (PCR) using forward […] and reverse […] primers containing PmlI and SacI restriction enzyme recognition sites, respectively. iProof high-fidelity DNA polymerase (Bio-Rad, Hercules, Calif.) was used in the PCR amplification with 33 cycles, each consisting of denaturation at 94° C. for 10 s, annealing at 55° C. for 33 s, and extension at 72° C. for 1 min. The PCR product and pET45b vector were digested with PmlI and SacI restriction enzymes, and the vector was dephosphorylated with CIP followed by in-gel purification using the MinElute Gel Extraction Kit (Qiagen Corp., Valencia, Calif.). The fragment was inserted into the vector directly downstream after the 6 histidine and valine codons, generating the construct pET45His6hMGL for expression of hMGL containing an N-terminal His6-tag. GC10 E. coli cells were used for DNA transformation and plasmid propagation. Mini- and midi-scale plasmid DNA preparations were performed using a GenElute Plasmid Miniprep Kit (Sigma) and PureYield Plasmid Midiprep System (Promega, Madison, Wis.), respectively. In-frame vector-fragment junctions and the coding sequence of the recombinant gene were confirmed by sequencing. The pET45His6hMGL construct was transformed into BL21 (DE3) and Origami (DE3) E. coli expression strains (Novagen, Madison, Wis.).
A single E. coli BL21 (DE3) colony containing the pET45His6hMGL plasmid was inoculated into 12 mL of Luria broth-ampicillin medium and grown overnight with shaking (250 rpm) at 37° C. The next morning, 10 mL of this culture was inoculated into 1 L of fresh Luria broth-ampicillin and allowed to grow until culture turbidity reached an (OD)600 of 0.6-0.8, at which time expression from the T7 promoter was induced by adding isopropyl-β-D-thio-galactopyranoside (1 mM). After 5 h induction, the cells were harvested by centrifugation at 5,000 g for 10 min at 4° C., washed with PBS, and held at −80° C. Five grams (wet-weight) of cells were resuspended in 50 mL lysis buffer (100 mM NaCl; 50 mM Tris, pH 8.0) supplemented with Triton X-100 (0.5%), lysozyme (0.2 mg/mL), and DNase I (25 μg/ml) and disrupted on ice by three, one-min sonication cycles, each consisting of 1-sec sonication bursts at 50 W power separated from each other by a 2-sec interval (Vibra-Cell 500 W, Sonics, Newtown, Conn.). The cell lysate was centrifuged at 10,000 g for 30 min at 4° C. […]

[2] = molecular target: T2, ΔTM rFAAH (Rattus norvegicus, UniProt P97612); experiment: Fluorescent enzyme assay, FAAH (AAMCA hydrolysis); format: biochemical; details: AAMCA substrate; for inhibition at 0.01 µM: 10 nM inhibitor; for inhibition at 0.01 µM / inhibition at 1 µM: screening assay; for inhibition at 1 µM: 1000 nM inhibitor; for IC50: eight-point dose response
T2 construct: 15 ug of ΔTM rFAAH (cell lysate obtained by recombinant procedure); made in house
T2 sequence (P97612 30-579 limits assumed): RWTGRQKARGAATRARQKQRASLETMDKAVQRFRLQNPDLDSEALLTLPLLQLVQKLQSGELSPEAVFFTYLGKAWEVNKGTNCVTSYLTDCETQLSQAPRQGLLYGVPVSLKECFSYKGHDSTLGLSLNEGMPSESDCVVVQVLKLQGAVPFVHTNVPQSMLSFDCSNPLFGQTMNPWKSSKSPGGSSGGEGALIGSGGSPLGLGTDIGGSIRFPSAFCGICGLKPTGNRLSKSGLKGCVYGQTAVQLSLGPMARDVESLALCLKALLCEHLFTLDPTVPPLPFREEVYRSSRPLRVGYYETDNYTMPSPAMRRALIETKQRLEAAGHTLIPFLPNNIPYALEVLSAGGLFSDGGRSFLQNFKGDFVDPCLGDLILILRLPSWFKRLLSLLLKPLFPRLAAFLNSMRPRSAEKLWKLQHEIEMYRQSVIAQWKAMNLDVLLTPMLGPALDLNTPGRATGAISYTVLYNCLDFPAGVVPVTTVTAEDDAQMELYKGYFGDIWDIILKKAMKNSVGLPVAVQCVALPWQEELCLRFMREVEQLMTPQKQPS
Experimental: as §1
The enzyme (FAAH and MGL) assays were performed in 96 well plates (Coster #3650) in a total volume of 200 uL. Fluorogenic substrate AAMCA (arachidonoyl 7-amino-4-methylcoumarin amide) for FAAH and AHMMCE (arachidonoyl 7-hydroxy-6-methoxy-4-methylcoumarin ester) for MGL were used using BioTek Synergy HT Microplate Reader. Compounds and substrates were dissolved in DMSO provide a 10 mM stock solution and kept as a stock solution at −20° C. until used for assay. Stock solutions were thawed and reconstituted in 50:50 DMSO/assay buffer to a final DMSO concentration per well below 8%. This ensures that the compounds and substrate are in solution during assay. […] Appropriate substrate was added to adjust the final concentration in each well to 20 uM for FAAH (2× Km) and 10 uM for MGL (1×KM). Fluorescence readings were performed at λex=360/λem=460 for 4 h using Kinetic assay protocol at every 20 min (the fluorescent product coumarin produced is quantitated by this procedure). The readings at 3 h for FAAH and 2 h for MGL (linear maximum hydrolysis kinetics of enzyme on substrate) were used to calculate percent inhibition based on controls. Compounds which had more than 50 percent inhibition at 10 uM were selected for dose response study to determine IC50 values. The dose response at 8 concentration points was performed as with the screening assay except that compounds were serially diluted to 8 concentration points which were chosen based on IC50 value, which were calculated from the screening assay results. Assays are run twice in triplicates and Graphpad Prism software is used to plot inhibition data to obtain IC50 values.

[3] = 10 nM inhibitor, AHMMCE substrate, screening assay
[4] = AHMMCE substrate, screening assay

CN(C(=O)n1nnc(Cc2ccc(Cl)cc2Cl)n1)c1ccccc1 [Compound 7a, 5-(2,4-dichlorobenzyl)-N-methyl-N-phenyl-2H-tetrazole-2-carboxamide]
inhibition at 0.01 µM [1, 3]: 58% | inhibition at 0.01 µM [2]: 84%

CN(C)C(=O)n1cnc(-c2ccccc2)c1 [Compound 33, N,N-dimethyl-4-phenyl-1H-imidazole-1-carboxamide]
inhibition at 1 µM [1, 4]: 6% | inhibition at 1 µM [2]: 88%

Cc1ccc(Cc2nnnn2C(=O)N(C)C)cc1 [Compound 26b]
inhibition at 0.01 µM [1, 3]: 23% | inhibition at 0.01 µM [2]: 85%

CC(C)N(C(=O)n1nnc(Cc2ccc(Cl)cc2Cl)n1)C(C)C [Compound 10, 5-(2,4-dichlorobenzyl)-N,N-diisopropyl-tetrazole-2-carboxamide]
inhibition at 1 µM [1, 4]: 11% | inhibition at 1 µM [2]: 94%

O=C(N1CCOCC1)n1nnc(Cc2ccc(Cl)cc2Cl)n1 [Compound 6, 4-{[5-(2,4-dichlorobenzyl)-tetrazol-2-yl]carbonyl}morpholine]
inhibition at 0.01 µM [1, 3]: 88% | inhibition at 0.01 µM [2]: 94%

O=C(N1CCN(Cc2ccccc2)CC1)n1nnc(Cc2ccc(Cl)cc2Cl)n1 [Compound 15]
inhibition at 1 µM [1, 4]: 63% | inhibition at 1 µM [2]: 95%

CCN(CC)C(=O)n1nnc(Cc2ccc(Cl)cc2Cl)n1 [Compound 9, 5-(2,4-dichlorobenzyl)-N,N-diethyl-tetrazole-2-carboxamide]
inhibition at 0.01 µM [1, 3]: 43% | inhibition at 0.01 µM [2]: 95%

CN(C)C(=O)n1nnnc1Cc1ccccc1 [Compound 35, 5-benzyl-N,N-dimethyl-1H-tetrazole-1-carboxamide]
inhibition at 0.01 µM [1, 3]: 41% | inhibition at 0.01 µM [2]: 81%

CN(C)C(=O)n1nnc(Cc2ccc(C(F)(F)F)cc2)n1 [Compound 20a, N,N-dimethyl-5-[4-(trifluoromethyl)benzyl]-2H-tetrazole-2-carboxamide]
inhibition at 0.01 µM [1, 3]: 98% | inhibition at 0.01 µM [2]: 93%

CN(C)C(=O)n1nnc(Cc2ccc(OC(F)(F)F)cc2)n1 [Compound 19a]
inhibition at 0.01 µM [1, 3]: 99% | inhibition at 0.01 µM [2]: 92%

COc1ccc(Cc2nnn(C(=O)N(C)C)n2)cc1 [Compound 24a, 5-(4-methoxybenzyl)-N,N-dimethyl-2H-tetrazole-2-carboxamide]
inhibition at 0.01 µM [1, 3]: 21% | inhibition at 0.01 µM [2]: 47%

CN(C)C(=O)n1nnnc1Cc1ccc(OC(F)(F)F)cc1 [Compound 19b]
inhibition at 0.01 µM [1, 3]: 76% | inhibition at 0.01 µM [2]: 91%

CN(C)C(=O)n1cc(Cc2ccccc2)nn1 [Compound 70, 4-benzyl-N,N-dimethyl-1,2,3-triazole-1-carboxamide]
inhibition at 1 µM [1, 4]: 99% | inhibition at 1 µM [2]: 98%

CN(C)C(=O)n1nnnc1-c1cc2ccccc2[nH]1 [Compound 3b, 5-(1H-indol-2-yl)-N,N-dimethyl-2H-tetrazole-1-carboxamide]
inhibition at 0.01 µM [1, 3]: 92% | inhibition at 0.01 µM [2]: 97%

CN(C)C(=O)n1cnc2cncnc21 [Compound 61, N,N-dimethyl-9H-purine-9-carboxamide]
inhibition at 1 µM [1, 4]: 87% | inhibition at 1 µM [2]: 87%

O=C(N(c1ccccc1)c1ccccc1)n1nnc(Cc2ccc(Cl)cc2Cl)n1 [Compound 8a, 5-(2,4-dichlorobenzyl)-N,N-diphenyl-2H-tetrazole-2-carboxamide]
inhibition at 1 µM [1, 4]: 100% | IC50 ([1]; eight-point dose response, AHMMCE substrate): 40 nM | inhibition at 1 µM [2]: 66% | IC50 [2]: 1300 nM

O=C(N1CCC2(CC1)OCCO2)n1nnc(Cc2ccc(Cl)cc2Cl)n1 [Compound 14]
inhibition at 1 µM [1, 4]: 52% | inhibition at 1 µM [2]: 97%

CN(C)C(=O)Oc1ccc(Cc2nnn(C(=O)N(C)C)n2)cc1 [Compound 36a, 4((2-(dimethylcarbamoyl)-2H-tetrazol-5-yl)methyl)phenyl dimethylcarbamate]
inhibition at 0.01 µM [1]: 92% | inhibition at 0.01 µM [2]: 80%

CN(C)C(=O)n1nnnc1Cc1ccc(C(F)(F)F)cc1 [Compound 20b]
inhibition at 0.01 µM [1, 3]: 6% | inhibition at 0.01 µM [2]: 90%

CN(C)C(=O)n1cnnn1 [Compound 1b]
inhibition at 0.01 µM [1, 3]: 13% | inhibition at 0.01 µM [2]: 51%

CC(=O)Nc1ccc(Cc2nnnn2C(=O)N(C)C)cc1 [Compound 25b]
inhibition at 1 µM [1, 4]: 90% | inhibition at 1 µM [2]: 88%

CN(CCCCN=C=S)C(=O)n1cnc(-c2ccccc2)c1 [Compound 49, N-(4-isothiocyanatobutyl)-N-methyl-4-phenyl-1H-imidazole-1-carboxamide]
inhibition at 1 µM [1, 4]: 7% | inhibition at 0.01 µM [2]: 25% | inhibition at 1 µM [2]: 90% | IC50 [2]: 42 nM

CN(C)C(=O)n1nnc(Cc2ccc(Br)cc2)n1 [Compound 16a, 5-(4-bromobenzyl)-N,N-dimethyl-2H-tetrazole-2-carboxamide]
inhibition at 0.01 µM [1, 3]: 98% | inhibition at 0.01 µM [2]: 92%

CN(C)C(=O)n1nnc(Cc2ccc(Cl)cc2Cl)n1 [Compound 17a, 5-(2,4-dichlorobenzyl)-N,N-dimethyl-2H-tetrazole-2-carboxamide]
inhibition at 0.01 µM [1, 3]: 99% | inhibition at 0.01 µM [2]: 93%
